Experimental data from the supplement of paper PMC10307832.

Columns and labels:
Test in all cases: relative viability (nuclei count vs DMSO), 5 days (fraction); higher = more cells survive
Carboplatin + Bortezomib = compound: C1CC(C1)(C(=O)O)C(=O)O.[NH2-].[NH2-].[Pt+2] [Carboplatin] + CC(C)C[C@H](NC(=O)[C@H](Cc1ccccc1)NC(=O)c1cnccn1)B(O)O [Bortezomib] (partner 0.002 µM)
Outline: (§1)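 Relative viability is defined as nuclei in treated wells over nuclei in vehicle wells. Duplicate plates were run and medians reported. Lung cancer cell lines in 1536-well plates were dosed by pin tool one day after seeding, with one drug or with a fixed anchor-drug dose plus five library-drug doses (not always all listed) in √10 steps, and nuclei were counted after 5 days.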

Carboplatin + Luminespib = compound: C1CC(C1)(C(=O)O)C(=O)O.[NH2-].[NH2-].[Pt+2] [Carboplatin] + CCNC(=O)c1noc(-c2cc(C(C)C)c(O)cc2O)c1-c1ccc(CN2CCOCC2)cc1 [Luminespib] (partner 0.01 µM)
Outline: as §1

Carboplatin + Pictilisib = compound: C1CC(C1)(C(=O)O)C(=O)O.[NH2-].[NH2-].[Pt+2] [Carboplatin] + CS(=O)(=O)N1CCN(Cc2cc3nc(-c4cccc5[nH]ncc45)nc(N4CCOCC4)c3s2)CC1 [Pictilisib] (partner 1 µM)
Outline: as §1

MLN4924 + Trametinib = compound: NS(=O)(=O)OC[C@@H]1C[C@@H](n2ccc3c(N[C@H]4CCc5ccccc54)ncnc32)C[C@@H]1O [MLN4924] + CC(=O)Nc1cccc(-n2c(=O)n(C3CC3)c(=O)c3c(Nc4ccc(I)cc4F)n(C)c(=O)c(C)c32)c1 [Trametinib] (partner 0.02 µM)
Outline: as §1

Cell Line	relative viability (Carboplatin + Bortezomib; first compound 0.08 µM)	relative viability (Carboplatin + Bortezomib; first compound 0.253 µM)	relative viability (Carboplatin + Bortezomib; first compound 0.8 µM)	relative viability (Carboplatin + Bortezomib; first compound 2.53 µM)	relative viability (Carboplatin + Bortezomib; first compound 8 µM)	relative viability (Carboplatin + Luminespib; first compound 0.08 µM)	relative viability (Carboplatin + Luminespib; first compound 0.253 µM)	relative viability (Carboplatin + Luminespib; first compound 0.8 µM)	relative viability (Carboplatin + Luminespib; first compound 2.53 µM)	relative viability (Carboplatin + Luminespib; first compound 8 µM)	relative viability (Carboplatin + Pictilisib; first compound 0.08 µM)	relative viability (Carboplatin + Pictilisib; first compound 0.253 µM)	relative viability (Carboplatin + Pictilisib; first compound 0.8 µM)	relative viability (Carboplatin + Pictilisib; first compound 2.53 µM)	relative viability (Carboplatin + Pictilisib; first compound 8 µM)	relative viability (MLN4924 + Trametinib; first compound 0.04 µM)	relative viability (MLN4924 + Trametinib; first compound 0.1265 µM)	relative viability (MLN4924 + Trametinib; first compound 0.4 µM)	relative viability (MLN4924 + Trametinib; first compound 1.265 µM)	relative viability (MLN4924 + Trametinib; first compound 4 µM)
NCI-H1755	0.995	1.02	0.992	1.01	0.887	0.419	0.7	0.41	0.595	0.366	0.432	0.442	0.407	0.417	0.391	0.813	0.749	0.801	0.348	0.215
NCI-H2009	1.12	0.938	0.945	0.918	0.671	1.06	1.05	0.986	0.935	0.581	0.825	0.816	0.761	0.79	0.558	0.342	0.322	0.238	0.136	0.105
HCC-827	1.18	1.09	1.09	1.02	0.991	0.653	0.675	0.441	0.452	0.3	0.886	0.923	0.79	0.846	0.897	0.738	0.601	0.526	0.193	0.156
NCI-H322M	1.26	1.23	1.2	1.22	1.14	1.09	0.749	0.752	0.633	0.61	0.567	0.465	0.507	0.542	0.521	0.662	0.735	1.03	0.452	0.389
NCI-H727	1.08	1.01	0.88	0.774	0.471	0.377	0.3	0.432	0.24	0.312	0.348	0.512	0.314	0.29	0.352	0.442	0.454	0.403	0.358	0.365
BEN	0.837	0.889	0.988	0.898	0.782	0.462	0.3	0.257	0.311	0.266	0.69	0.587	0.515	0.525	0.609	1	0.733	0.548	0.372	0.287
CAL-12T	1.28	0.826	0.972	1.07	0.911	0.324	0.334	0.317	0.579	0.282	0.484	0.398	0.345	0.376	0.486	0.373	0.371	0.269	0.279	0.158
NCI-H1792	1.06	0.933	0.885	0.844	0.862	0.492	0.36	0.44	0.415	0.267	0.327	0.261	0.236	0.22	0.246	0.376	0.441	0.566	0.433	0.238
NCI-H2085	1.24	1.2	1.03	1	0.82	0.454	0.419	0.494	0.488	0.377	0.525	0.502	0.477	0.458	0.399	0.486	0.509	0.575	0.559	0.293
LCLC-103H	1.13	1.33	1.06	1.24	1	0.918	1.09	0.859	0.908	0.905	0.65	0.597	0.613	0.646	0.611	0.697	0.651	0.513	0.331	0.307
EKVX	1.06	1.13	1.01	1.06	0.976	0.903	0.864		0.695	0.727	0.452	0.422	0.413	0.381	0.387	0.314	0.349	0.319	0.244	0.193
201T	1.18	1.11	1.13	1.14	1.06	1.02	1.06	1.1	0.988	1	0.69	0.667	0.736	0.684	0.634	0.786	0.676	0.523	0.3	0.322
NCI-H2023	1.06	1.18	1.02	0.717	0.204	0.774	0.715	0.668	0.281	0.172	0.262	0.27	0.261	0.192	0.171	0.549	0.495	0.328	0.0604	0.0809
NCI-H2347	1.22	0.815	1.13	1.05	0.768	0.573	0.421	0.368	0.432	0.352	0.65	0.516	0.623	0.708	0.74	0.312	0.32	0.284	0.265	0.293
LXF-289	1.03	0.986	0.98	1.01	0.919	0.79	0.787	0.601	0.677	0.568	0.889	0.883	0.8	0.832	0.766	0.568	0.419	0.464	0.216	0.131
EMC-BAC-2	1.14	1.02	1.13	1.05	0.957	1.22	1.15	1.15	1	0.751	0.48	0.538	0.476	0.56	0.466	0.762	0.589	0.466	0.324	0.35
